Results: patent US10736906B2, “Method to enhance tissue regeneration” (CHILDREN'S MEDICAL CENTER CORPORATION, priority 2006, dated 2020)
Entries after “also recorded” stand apart in the source; their conditions may differ.

Assays:
Type in all cases: in vivo
[1] = tested on: hematopoietic stem cells (HSCs); assay: HSC formation in zebrafish embryos (runx1, c-myb expression), with heat-shock inducible wnt modulators
Method: The functional consequences of the PGE2/wnt interaction in HSC formation during embryonic development were analyzed by examining the expression of the HSC markers runx1 and c-myb. Heat shock induction of a canonical wnt ligand, wnt8, at ten somites led to enhanced HSC formation at 36 hours post fertilization (hpf; 47/54). When wnt8 induction was followed by exposure to indomethacin (10 μM, 16-36 hpf) HSC formation was reduced to or below wild-type levels ( 43/46).
Inducible negative regulators of wnt activity were used in combination with dmPGE2 treatment to functionally localize the interaction between the PG and wnt pathways. Dkk1 antagonizes the wnt pathway at the level of membrane binding and the initiation of the wnt signaling cascade. Dkk induction in hs:dkk1 transgenic embryos inhibited HSC development ( 34/49). Exposure to exogenous dmPGE2 rescued the dkk1-mediated effect on HSC formation ( 28/51, 10 μM, 16-36 hpf). Axin is a central component of the β-catenin destruction complex and thus a negative regulator of the wnt signaling cascade in the cytosolic compartment. […] Similarly, a dominant-negative form of the β-catenin transcriptional co-activator TCF abolished HSC formation ( 60/62), and no rescue was affected via dmPGE2 exposure.
The wnt pathway can actively enhance HSC proliferation through signaling from the HSC niche as well as within HSCs themselves. PGE2 regulates HSC formation at the level of the vascular niche as well as within the HSCs. North et al., 2007. In order to identify transcriptional programs regulated by the wnt signaling pathway, genes involved in HSC development were analyzed by qPCR.
The functional interaction of signaling processes in the zebrafish, down stream from PG, was explored by increasing camp production using forskolin and inhibiting PKA with H89. […] Furthermore, the rescue of dkk effects by dmPGE2 was eliminated by H89.
Heat shock activation/repression of wnt signaling: Embryonic heat-shock experiments were conducted at 38° C. for a duration of 20 minutes unless otherwise noted. Genotype was determined by the presence of GFP fluorescence at three hours post heat-induction, non-fluorescence (wild-type) siblings were used as controls.
In situ hybridization: Paraformaldehyde (PFA)-fixed embryos were processed for in situ hybridization using standard zebrafish protocols such as those found on the internet at, for example, ZFIN: The Zebrafish Model Organism Database (hosted by the Univ. Oregon, Eugene, Oreg.). The following RNA probes were used to detect alterations in endodermal and liver development: GFP, LFABP, sterol carrier protein, transferrin, foxA3, insulin, trypsin, and IFABP. Changes in expression compared to wild-type controls are reported as the # altered/# scored per genotype; a minimum of three independent experiments were conducted per analysis.

[2] = tested on: stem and progenitor cell population; assay: hematopoietic recovery following irradiation in the adult zebrafish (kidney marrow); settings: ten days post irradiation; wnt8 induction 24-36 hours post irradiation
Method: It has been hypothesized that wnt activation regulates HSC self-renewal and repopulation. Wnt activation is also thought to be involved in carcinogenesis, however, making the concept of direct enhancement of wnt signaling problematic. Whether regulation of wnt activity by prostaglandin can effectively modulate HSC homeostasis in the adult, was determined by observing hematopoietic recovery following irradiation in the zebrafish. […] APCMin/+ mice have elevated β-catenin levels due to loss of APC function in the destruction complex.

adult zebrafish liver = assay: liver regeneration and wound healing after 1/3 partial hepatectomy in adult zebrafish
Excerpt: Following ⅓ partial hepatectomy, the zebrafish liver regenerates within five days to seven days.
As many molecular pathways controlling embryonic development mediate tissue homeostasis in the adult, the effects of prostaglandin signaling during liver regeneration were examined. […] Fish were revived and allowed to heal in fish water.
To test the requirement of functional prostaglandin signaling during regeneration, fish were exposed to the dual-specific cox inhibitor, indomethacin, from hour 6 to hour 18 following partial hepatectomy.
Liver Resection: Folling administration of tricaine anesthetic, ⅓ partial hepaectomy of the adult zebrafish liver was performed under brightfield imaging on a dissection microscope. An incision was made using microdissection scissors posterior to the heart on the left lateral portion of the abdomen.

SMILES: COc1ccc2c(c1)c(CC(=O)O)c(C)n2C(=O)c1ccc(Cl)cc1 [indomethacin]
- effects of wnt8/dkk1 induction on runx1, cmyb, flk1, ephB2 expression (qPCR) ([1]; indomethacin added to wnt8, dmPGE2 added to dkk1): could be modified
- HSC formation reduced to or below wild-type levels after wnt8 induction (# altered/# scored) ([1]; wnt8 heat shock at ten somites, then 10 μM, 16-36 hpf): 43/46
- effect on wnt8-induced 2.5-fold increase in stem and progenitor cell population [2]: significantly diminished
- liver architecture (adult zebrafish liver; at resection margin and throughout un-injured portions): altered architecture of the liver
- liver regrowth compared to controls (adult zebrafish liver; exposure following resection (indomethacin hour 6 to 18; day 1 and day 3)): significantly reduced liver re-growth
- complete regeneration of the liver (adult zebrafish liver; indomethacin: by day 5 post-resection): failed to regenerate fully
- wound healing at the incision site (adult zebrafish liver; skin wounds following partial hepatectomy): severely inhibited; also recorded: prohibited wound healing
- regenerative index (adult zebrafish liver; treatment 6 to 18 hours post resection, wild-type and APC mutant fish): significantly diminished
- β-catenin, immunohistochemistry post resection (adult zebrafish liver; wild-type and APC+/− fish): decrease in overall β-catenin levels
